# Read-outs that look alike come from different tables or passages of the source.
# Legend:
# S. aureus ATCC 25923 = test: Bacterial growth in MHB; format: cell-based, Staphylococcus aureus
# Description: (§1) The effect of LF or LFC at concentration sub-MICs alone or in combination with sub-MICs of antibiotics on bacterial growth rate of S. aureus, E. coli and K. pneumoniae was determined by monitoring bacterial cultures in MHB with the O.D.600 nm or by the count of colony forming unit per ml (cfu/ml). A volume of 2.5 ml of overnight cultures in MHB adjusted to 0.5-1 McFarland standard in saline were used to inoculate a final volume of 25 ml of fresh MHB containing the desired concentration of tested compounds. All flasks were then incubated at 37° C. with agitation (200 rpm) for 9 h. Aliquots were removed every hour to determine the culture turbidity using the spectrophotometer Philips PU 8800 (Pye Unican Ltd, Cambridge, UK). The combined antibiotic effect on bacterial growth was also determined using concentrations of LF in the presence of different concentrations of antibiotics. Briefly, a volume of 3 ml of fresh MHB containing desired concentration of drugs was adjusted to an optical density of 0.4 at 540 nm after an overnight culture. The culture was then incubated at 37° C with agitation (200 rpm). After incubation, aliquots were removed to determine the culture turbidity (OD540nm) or cfu/ml. To determine the influence of the level of iron on of the growth inhibition by the test compound, 5 μM of FeCl3 were added to the media.
# S. aureus PC-1 = test: Bacterial growth in MHB; format: cell-based, Staphylococcus aureus
# Description: as §1
# [1] = tested on: S. aureus strains SHY97-4242 and RFT-5; test: Bacterial growth in MHB; format: cell-based, Staphylococcus aureus
# Description: as §1
# S. aureus SHY97-3923 = test: MIC of penicillin G alone or with bovine LF, macrodilution; format: cell-based; conditions: Staphylococcus aureus, strain β-lactamase type −, read-out: MICs of penicillin G
# Source text: (§2) Staphylococcus aureus strains ATCC 25923 and 6538 and Escherichia coli ATCC 25922 were obtained from the American Type Culture Collection. Eight bovine mastitis clinical isolates of S. aureus (SHY97-3906, -3923, -4085 -4242, -4320 and -4343, RFT-1 and RFT-5) and one isolate of E. coli SHY97-3923-2 and one isolate of Kiebsiella pneumoniae SHY99-723-1 were kindly provided by the Laboratoire Provincial de Pathologie Animale of St-Hyacinthe and of Rock-Forest (Quebec, Canada), respectively. Nine β-lactam antibiotics resistant S. aureus strains (PC-1, NCTC 9789, 2076, 22260, ST79/741, 3804, RN9, FAR8, and FAR10) were obtained from Vanderbilt University School of Medicine (Nashville, Tenn., USA). All the culture media were from Difco Laboratories (Detroit, Mich.). Bacteria from frozen stock at −80° C. were streaked onto tryptic soy agar plates suplemented with 5% of defibrinated sheep blood (Quelab, Montreal, QC, Canada) or Brain Heart infusion agar plates. Plates were then incubated for 16 to 24 h at 37° C. For most experiments, the strains were subcultured onto Mueller Hinton agar plates (MHA) or broth (MHB) for an additional 16-20 h. Aqueous solutions of the tested products were added by filtration through a sterile filter assembly (pore size 0.2 μm, Fisher, Ottawa, Ontario).
# (§3) The MICs were determined by both macrodilution (1 ml/tube) and microdilution (100 μl/well) in sterile 96 well microtiter plates (International Nunc, Napierville, Ill.) techniques in three separate experiments according to the National Committee for Clinical Laboratory Standards (1992 and 1999) in three separate experiments. Serial 2-fold dilutions in MHB of LF, LFC, antibiotic or combination of LF or LFC with antibiotic were inoculated with an overnight culture at a final inoculum of 10^6 cfu/ml in MHB. Effect of LF combination with antibiotic on MICs were determined by adding 0.5 mg or 1 mg/ml of LF to each antibiotic dilution. The MIC was defined as the lowest concentration of drug (highest dilution) that caused a complete inhibition of bacterial growth after an incubation of 18 h. Effect of LF or LFC combination with antibiotic on MIC was also determined by checkerboard method using 96 well microtiter plates. Each antibiotic dilution (50 μl) was serially added to the wells in vertical rows starting from the top (lower dilution) to the bottom. Lactoferrin or LFC (50 μl) were added to 50 μl of each antibiotic dilution and serially diluted starting at the left (lower dilution) to the right. After inoculation, the final concentration of antibiotic from top to bottom were 32 to 8, 2 to 0.5, 0.5 to 0.125 μg/ml for penicillin, cefazolin and neomycin, respectively. From left to right, the concentration of LF or LFC were 25 to 0.0244 mg/ml or 256 to 0.5 μg/ml respectively in a final volume of 100 μl/well. The microplate's were incubated at 37° C. for 24 h. Bacterial growth was measured optically at 540 nm using Spectra Max 250 Microplate Spectrophotometer System of Molecular Device (Fisher Scientific, Ottawa, Canada). Tubes were incubated at 37° C. for 18 h and bacterial growth was measured by visual examination and optically at 540 nm using a spectrophotometer (Philips PU 8800; Pye Unican Ltd, Cambridge, UK). The fractional inhibitory concentration (FIC) was calculated as described by Eliopoulos and Moellering (1991).
# S. aureus SHY97-4320 = test: as above; format: cell-based; conditions: Staphylococcus aureus, strain β-lactamase + uncharacterised, read-out: MICs of penicillin G
# Source text: as §2, §3
# S. aureus FAR 10 = test: as above; format: cell-based; conditions: Staphylococcus aureus, strain β-lactamase +D, read-out: MICs of penicillin G
# Source text: as §2, §3
# S. aureus ST79/41 = test: as above; format: cell-based; conditions: Staphylococcus aureus, strain β-lactamase +B, read-out: MICs of penicillin G
# Source text: as §2, §3
# S. aureus FAR 8 = test: as above; format: cell-based; conditions: Staphylococcus aureus, strain β-lactamase +D, read-out: MICs of penicillin G
# Source text: as §2, §3
# [2] = sub-MIC penicillin G (1/4 to 1/16 MIC) with 1 mg/ml LF, P<0.01
compound,measurement,setting,value
"CC1(C)S[C@@H]2[C@H](NC(=O)Cc3ccccc3)C(=O)N2[C@H]1C(=O)O [penicillin G, Penicillin G]",growth,S. aureus ATCC 25923; penicillin G combined with 32 μg/ml LFC (⅛ MIC),Complete growth inhibition
same,growth rate,S. aureus ATCC 25923; [2],important growth rate reductions
same,growth,S. aureus PC-1; penicillin G combined with 64 μg/ml LFC (⅛ MIC),Complete growth inhibition
same,growth rate,S. aureus PC-1; sub-MIC of penicillin G alone,did not significantly affect growth rate
same,growth rate,S. aureus PC-1; [2],important growth rate reductions
same,effect of addition of iron on growth inhibition,[1]; combination of penicillin to LF,did not affect
same,growth inhibitory activity of penicillin,"[1]; in the presence of LF, P<0.01",enhanced
same,growth,"[1]; penicillin G alone, P<0.001",reduced the growth
same,MIC,"S. aureus SHY97-3923; SHY973923, +0.5 mg/ml LF",0.007 mg/L
same,MIC,"S. aureus SHY97-3923; SHY973923, +1 mg/ml LF",0.007 mg/L
same,MIC,"S. aureus SHY97-3923; SHY973923, Alone",0.015 mg/L
same,MIC,"S. aureus SHY97-4320; SHY974320, +0.5 mg/ml LF",32 mg/L
same,MIC,"S. aureus SHY97-4320; SHY974320, +1 mg/ml LF",32 mg/L
same,MIC,"S. aureus SHY97-4320; SHY974320, Alone",64 mg/L
same,MIC,"S. aureus FAR 10; FAR10, +0.5 mg/ml LF",1 mg/L
same,MIC,"S. aureus FAR 10; FAR10, +1 mg/ml LF",1 mg/L
same,MIC,"S. aureus FAR 10; FAR10, Alone",2 mg/L
same,MIC,"S. aureus ST79/41; ST79/41, +0.5 mg/ml LF",16 mg/L
same,MIC,"S. aureus ST79/41; ST79/41, +1 mg/ml LF",16 mg/L
same,MIC,"S. aureus ST79/41; ST79/41, Alone",32 mg/L
same,MIC,"S. aureus FAR 8; FAR8, +0.5 mg/ml LF",8 mg/L
same,MIC,"S. aureus FAR 8; FAR8, +1 mg/ml LF",8 mg/L
same,MIC,"S. aureus FAR 8; FAR8, Alone",16 mg/L
